Source: paper PMC10468765, “Substituted 1,2,4-Triazoles as Novel and Selective Inhibitors of Leukotriene Biosynthesis Targeting 5-Lipoxygenase-Activating Protein” (ACS Omega, 2023)

System: 5-lipoxygenase-activating protein (FLAP)
Assay: cells
Parameters: species or system human neutrophils; Inhibition of 5-LO product formation (LTB4, its trans isomers, 5-H(p)ETE) in A23187-stimulated human neutrophils, FLAP-dependent assay
Details: Neutrophil; 2.5 uM A23187

| Structure (SMILES) | IC50 [nM] |
| --- | --- |
| COc1ccc(-n2c(SCc3nc4ccccc4s3)nnc2-c2cccs2)cc1 [6a] | 2180 ± 650 |
| COc1ccc(-n2c(SCc3ccc4ccccc4n3)nnc2-c2cccs2)cc1 [6j] | 3690 ± 1020 |
| COc1cccc(-n2c(SCc3ccc4ccccc4n3)nnc2-c2cccs2)c1 [6k] | 4170 ± 270 |
| COc1ccc(-n2c(OCc3nc4ccccc4s3)nnc2-c2cccs2)cc1 [6n] | 3010 ± 840 |
| COc1ccc(-n2c(OCc3ccc4ccccc4n3)nnc2-c2cccs2)cc1 [6o] | 6340 ± 790 |
| COc1ccc(-n2c(SCc3nc4ccccc4s3)nnc2-c2ccc(C#N)cc2)cc1 [6s] | 1920 ± 580 |
| N#Cc1ccc(-c2nnc(SCc3nc4ccccc4s3)n2-c2ccccc2)cc1 [6z] | 1930 ± 370 |

Now those with a lower IC50, led by results:

| IC50 [nM] | Structure (SMILES) |
| --- | --- |
| 1580 ± 590 | COc1cccc(-n2c(SCc3nc4ccccc4s3)nnc2-c2cccs2)c1 [6c] |
| 1420 ± 310 | COc1ccc(-n2c(SCc3ccc(C(F)(F)F)o3)nnc2-c2cccs2)cc1 [6l] |
| 1360 ± 270 | Clc1ccc(-n2c(SCc3nc4ccccc4s3)nnc2-c2cccs2)cc1 [6d] |
| 1280 ± 190 | COc1ccc(-n2c(SCc3nc4ccccc4s3)nnc2-c2ccccc2)cc1 [6q] |
